System: CKD Mouse Model
Assay: Renal profibrotic and inflammatory gene expression in the CKD mouse model
Type: in vivo, mice
Conditions: kidney, two months administration
Description: Chronic kidney disease (CKD) was induced by subtotal nephrectomy (Nx) in eight-weeks-old FVB male mice (25-26 g). All surgeries were performed under ketamine/xylazine anaesthesia. Briefly, the left kidney was exposed, and the upper and lower poles were tied with a poly-glycolic acid suture line. The peritoneum and skin were then sutured, and the animals were returned to their individual cages. After one week of recovery, the second kidney was removed. Removal of the second kidney represents TO. Sham mice were subjected to the same surgical procedures but neither renal poles nor the right kidney were removed. Mice were monitored for any sign of distress, and those observed to be experiencing severe, unrelievable pain were euthanized. Renal failure was assessed by the measure of plasma creatinine and urea with an automatic analyser (Konelab 20i; Thermo Fisher Scientific, Vernon Hills, Ill.) at weeks 4 and 10 post-Nx.
Frozen tissues (kidneys, heart) were homogenized in TRIzol (Life Technologies, 15596018) using FastPrep beads (MP-Bio, 6913-100). cDNAs were generated using the Superscript II reverse transcriptase kit (Invitrogen, 18064022), and qPCR was performed as previously described. Briefly, transcript levels were analysed in a CFX396 apparatus (Biorad). The reactions were performed in duplicate for each sample using the IQ SYBR Green supermix Kit (Biorad, 170-8882). […]

Which results are given for CC(=O)c1cccc(S(=O)(=O)NCc2ccccc2-n2cccn2)c1 [GPZ614741]?
profibrotic target genes (collagen1, fibronectin, alphaSMA) (FIG. 15A): blunted the increase; inflammatory markers (IL6, MCP1, TNFalpha) (FIG. 15B): no effects

Source: patent US20220054493A1, “INHIBITORS OF NGAL PROTEIN” (INSERM (INSTITUT NATIONAL DE LA SANTÉ ET DE LA RECHERCHE …, priority 2019, published 2022)
